# Results as given in patent US9834558B2, “Substituted bridged urea analogs as sirtuin modulators” (GLAXOSMITHKLINE LLC, priority 2013, dated 2017).
# Molecular target: T1, SIRT1 (Homo sapiens, UniProt Q96EB6)
# T1 sequence (Q96EB6 1-747): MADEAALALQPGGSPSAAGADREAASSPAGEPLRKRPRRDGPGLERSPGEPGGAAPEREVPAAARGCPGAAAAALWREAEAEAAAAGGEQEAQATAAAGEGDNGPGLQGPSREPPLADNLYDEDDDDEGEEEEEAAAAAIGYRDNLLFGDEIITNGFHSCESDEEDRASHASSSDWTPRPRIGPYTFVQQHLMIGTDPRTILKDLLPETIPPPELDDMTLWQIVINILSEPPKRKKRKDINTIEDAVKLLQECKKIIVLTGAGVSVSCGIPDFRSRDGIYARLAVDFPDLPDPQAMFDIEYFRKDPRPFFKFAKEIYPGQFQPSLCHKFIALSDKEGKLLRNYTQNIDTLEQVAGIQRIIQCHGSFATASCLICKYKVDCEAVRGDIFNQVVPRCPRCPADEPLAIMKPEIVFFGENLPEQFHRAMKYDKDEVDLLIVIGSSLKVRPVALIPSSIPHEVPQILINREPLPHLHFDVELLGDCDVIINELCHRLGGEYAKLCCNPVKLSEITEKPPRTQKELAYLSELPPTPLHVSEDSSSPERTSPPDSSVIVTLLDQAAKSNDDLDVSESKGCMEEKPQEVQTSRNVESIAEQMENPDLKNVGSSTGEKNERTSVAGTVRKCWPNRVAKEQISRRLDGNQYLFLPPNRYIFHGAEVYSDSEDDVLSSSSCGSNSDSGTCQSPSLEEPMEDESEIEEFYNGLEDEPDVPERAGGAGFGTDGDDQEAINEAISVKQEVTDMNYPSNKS
# Assay: Trp mass spectrometry assay of SIRT1 activation
# Assay type: biochemical
# Conditions: Trp mass spectrometry assay; concentration of test compound giving 150% activation of SIRT1
# Outline: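 Activation read-out: mass-spec measurement of O-acetyl-ADP-ribose or deacetylated Trp peptide versus compound-free controls, giving EC1.5 and Percent Maximum Activation. Reactions ran 25 min at 25 °C, pH 7.5, with 120 μM βNAD+, 0.5 μM acetylated p53-derived peptide and 10 nM His-tagged SIRT1.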
row,SMILES,Tryp AVG EC1.5 (μM)
1,O=C(Nc1ccccn1)N1c2nc(-c3ccc(Cl)c(Cl)c3)ccc2N2CC[C@H]1C2 [Example 332],A (A (EC1.5<1 μM))
2,O=C(Nc1ccccn1)N1c2nc(-c3cc(F)cc(C(F)(F)F)c3)ccc2N2CC[C@H]1C2 [Example 333],A (A (EC1.5<1 μM))
3,O=C(Nc1ccccn1)N1c2nc(-c3cccc(C(F)(F)F)c3F)ccc2N2CC[C@H]1C2 [Example 334],B (B (EC1.5 1-25 μM))
4,O=C(Nc1cccc(C2(C(F)(F)F)N=N2)c1)N1c2nc(-c3cccc(C(F)(F)F)c3)ccc2N2CCC[C@H]1C2 [Example 335],A (A (EC1.5<1 μM))
5,O=C(Nc1ccccn1)N1c2nc(-c3cccc(C(F)(F)F)n3)ccc2N2CC[C@H]1C2 [Example 336],B (B (EC1.5 1-25 μM))
6,O=C(Nc1ccncn1)N1c2nc(-c3cccc(C(F)(F)F)n3)ccc2N2CC[C@H]1C2 [Example 337],B (B (EC1.5 1-25 μM))
7,O=C(Nc1cnccn1)N1c2nc(-c3cccc(C(F)(F)F)n3)ccc2N2CC[C@H]1C2 [Example 338],B (B (EC1.5 1-25 μM))
8,COc1cc(NC(=O)N2c3nc(-c4cccc(C(F)(F)F)n4)ccc3N3CC[C@H]2C3)ncn1 [Example 339],B (B (EC1.5 1-25 μM))
9,O=C(Nc1ccc(F)cn1)N1c2nc(-c3cccc(C(F)(F)F)n3)ccc2N2CC[C@H]1C2 [Example 340],B (B (EC1.5 1-25 μM))
10,N#Cc1cc(-c2ccc3c(n2)N(C(=O)Nc2ccccn2)[C@H]2CCN3C2)ccc1F [Example 341],A (A (EC1.5<1 μM))
11,COc1ccc(-c2ccc3c(n2)N(C(=O)Nc2ccccn2)[C@H]2CCN3C2)cn1 [Example 342],B (B (EC1.5 1-25 μM))
12,CN(C)Cc1cccc(-c2ccc3c(n2)N(C(=O)Nc2ccccn2)[C@H]2CCN3C2)c1 [Example 343],B (B (EC1.5 1-25 μM))
13,O=C(Nc1ccccn1)N1c2nc(-c3cc(F)cc(F)c3)ccc2N2CC[C@H]1C2 [Example 344],A (A (EC1.5<1 μM))
14,CN(C)c1ccc(-c2ccc3c(n2)N(C(=O)Nc2ccccn2)[C@H]2CCN3C2)cn1 [Example 345],B (B (EC1.5 1-25 μM))
15,COc1cncc(-c2ccc3c(n2)N(C(=O)Nc2ccccn2)[C@H]2CCN3C2)c1 [Example 346],B (B (EC1.5 1-25 μM))
16,O=C(Nc1ccccn1)N1c2nc(-c3ccc(-c4nnn[nH]4)cc3)ccc2N2CC[C@H]1C2 [Example 347],A (A (EC1.5<1 μM))
17,N#Cc1cccc(-c2ccc3c(n2)N(C(=O)Nc2ccccn2)[C@H]2CCCN3C2)c1 [Example 348],A (A (EC1.5<1 μM))
18,Cn1cc(-c2ccc3c(n2)N(C(=O)Nc2ccccn2)[C@H]2CCN3C2)cn1 [Example 349],B (B (EC1.5 1-25 μM))
19,N#Cc1cccc(-c2ccc3c(n2)N(C(=O)Nc2cccnc2)[C@H]2CCCN3C2)c1 [Example 350],A (A (EC1.5<1 μM))
20,N#Cc1cccc(-c2ccc3c(n2)N(C(=O)Nc2cnccn2)[C@H]2CCCN3C2)c1 [Example 351],A (A (EC1.5<1 μM))
21,N#Cc1cccc(-c2ccc3c(n2)N(C(=O)Nc2ccncn2)[C@H]2CCCN3C2)c1 [Example 352],A (A (EC1.5<1 μM))
22,N#Cc1cccc(-c2ccc3c(n2)N(C(=O)Nc2cncc(F)c2)[C@H]2CCCN3C2)c1 [Example 353],A (A (EC1.5<1 μM))
23,O=C(Nc1ccccn1)N1c2nc(-c3cccc(CC(O)CO)c3)ccc2N2CC[C@H]1C2 (some centres unmarked) [Example 354],A (A (EC1.5<1 μM))

# Same assay, conditions: Trp peptide assay; EC1.5 = concentration that results in 150% activation of SIRT1
row,SMILES,TRP Activity (EC1.5)
1,"O=C(Nc1cncc(OC[C@H](O)CO)n1)N1c2nc(-c3cccc(C(F)(F)F)c3)ccc2N2CC[C@H]1C2 [(9S)-N-{6-[(2R)-2,3-dihydroxypropoxy]pyrazin-2-yl}-5-[3-(trifluoromethyl)phenyl]-1,6,8-triazatricyclo[7.2.1.0 {2,7}]dodeca-2(7),3,5-triene-8-carboxamide]",A (A (EC1.5<1 μM))
2,"Cc1ccc(-c2ccc3c(n2)N(C(=O)Nc2cncc(OC[C@@H](O)CO)n2)[C@H]2CCN3C2)cn1 [(9S)-N-{6-[(2S)-2,3-dihydroxypropoxy]pyrazin-2-yl}-5-(6-methylpyridin-3-yl)-1,6,8-triazatricyclo[7.2.1.0 {2,7}]dodeca-2(7),3,5-triene-8-carboxamide]",B (B (EC1.5 1-25 μM))
3,"O=C(Nc1cncc(OC[C@@H](O)CO)n1)N1c2nc(-c3cccc(C(F)(F)F)c3)ccc2N2CC[C@H]1C2 [(9S)-N-{6-[(2S)-2,3-dihydroxypropoxy]pyrazin-2-yl}-5-[3-(trifluoromethyl)phenyl]-1,6,8-triazatricyclo[7.2.1.0 {2,7}]dodeca-2(7),3,5-triene-8-carboxamide]",A (A (EC1.5<1 μM))

# Same assay, conditions: Trp peptide assay; maximum activity relative to control (100%); read-out: TRP MAX RESP (percent maximum fold activation)
row,SMILES,Emax [%]
1,"O=C(Nc1cncc(OC[C@H](O)CO)n1)N1c2nc(-c3cccc(C(F)(F)F)c3)ccc2N2CC[C@H]1C2 [(9S)-N-{6-[(2R)-2,3-dihydroxypropoxy]pyrazin-2-yl}-5-[3-(trifluoromethyl)phenyl]-1,6,8-triazatricyclo[7.2.1.0 {2,7}]dodeca-2(7),3,5-triene-8-carboxamide]",> 150
2,"Cc1ccc(-c2ccc3c(n2)N(C(=O)Nc2cncc(OC[C@@H](O)CO)n2)[C@H]2CCN3C2)cn1 [(9S)-N-{6-[(2S)-2,3-dihydroxypropoxy]pyrazin-2-yl}-5-(6-methylpyridin-3-yl)-1,6,8-triazatricyclo[7.2.1.0 {2,7}]dodeca-2(7),3,5-triene-8-carboxamide]",> 150
3,"O=C(Nc1cncc(OC[C@@H](O)CO)n1)N1c2nc(-c3cccc(C(F)(F)F)c3)ccc2N2CC[C@H]1C2 [(9S)-N-{6-[(2S)-2,3-dihydroxypropoxy]pyrazin-2-yl}-5-[3-(trifluoromethyl)phenyl]-1,6,8-triazatricyclo[7.2.1.0 {2,7}]dodeca-2(7),3,5-triene-8-carboxamide]",> 150

# Same assay, conditions: Trp peptide substrate; concentration giving 150% activation of SIRT1
row,SMILES,Tryp AVG EC1.5 (μM)
1,Cc1cc(OCC(O)CO)nc(NC(=O)N2c3nc(-c4cccc(C(F)(F)F)c4)ccc3N3CC[C@H]2C3)n1 (some centres unmarked) [Example 26],B (B (EC1.5 1-25 μM))
2,CCN(CC)C(=O)N1c2nc(-c3cccc(C(F)(F)F)c3)ccc2N2CC[C@H]1C2 [Example 52],C (C (EC1.5>25 μM))
3,CC(=O)c1sc(NC(=O)N2c3nc(-c4cccc(C(F)(F)F)c4)ccc3N3CC[C@H]2C3)nc1C [Example 75],A (A (EC1.5<1 μM))
4,COc1ccc(C)nc1NC(=O)N1c2nc(-c3cccc(C(F)(F)F)c3)ccc2N2CC[C@H]1C2 [Example 77],B (B (EC1.5 1-25 μM))
5,O=C(Nc1cccc2nccnc12)N1c2nc(-c3cccc(C(F)(F)F)c3)ccc2N2CC[C@H]1C2 [Example 83],A (A (EC1.5<1 μM))
6,Cn1ncc2cc(NC(=O)N3c4nc(-c5cccc(C(F)(F)F)c5)ccc4N4CC[C@H]3C4)ccc21 [Example 87],A (A (EC1.5<1 μM))
7,O=C(Nc1nc2ccccc2s1)N1c2nc(-c3cccc(C(F)(F)F)c3)ccc2N2CC[C@H]1C2 [Example 90],A (A (EC1.5<1 μM))
8,Cc1nc(NC(=O)N2c3nc(-c4cccc(C(F)(F)F)c4)ccc3N3CC[C@H]2C3)nc2c1CCC2 [Example 91],B (B (EC1.5 1-25 μM))
9,Cc1nn(C)cc1NC(=O)N1c2nc(-c3cccc(C(F)(F)F)c3)ccc2N2CC[C@H]1C2 [Example 92],B (B (EC1.5 1-25 μM))
10,O=C1OCc2ccc(NC(=O)N3c4nc(-c5cccc(C(F)(F)F)c5)ccc4N4CC[C@H]3C4)cc21 [Example 93],A (A (EC1.5<1 μM))
11,Cc1cc(C(F)(F)F)nc(NC(=O)N2c3nc(-c4cccc(C(F)(F)F)c4)ccc3N3CC[C@H]2C3)n1 [Example 94],B (B (EC1.5 1-25 μM))
12,O=C(Nc1ccc2c(c1)OCCCO2)N1c2nc(-c3cccc(C(F)(F)F)c3)ccc2N2CC[C@H]1C2 [Example 95],A (A (EC1.5<1 μM))
13,O=C(Nc1ccncc1Cl)N1c2nc(-c3cccc(C(F)(F)F)c3)ccc2N2CC[C@H]1C2 [Example 96],B (B (EC1.5 1-25 μM))
14,O=C(Nc1ccncn1)N1c2nc(C3CCCC(C(F)(F)F)C3)ccc2N2CC[C@H]1C2 (some centres unmarked) [Example 98],B (B (EC1.5 1-25 μM))
15,O=C(Nc1cccnc1)N1c2nc(C3CCCC(C(F)(F)F)C3)ccc2N2CC[C@H]1C2 (some centres unmarked) [Example 99],A (A (EC1.5<1 μM))
16,Cc1cnccc1NC(=O)N1c2nc(C3CCCC(C(F)(F)F)C3)ccc2N2CC[C@H]1C2 (some centres unmarked) [Example 100],B (B (EC1.5 1-25 μM))
17,O=C(Nc1cnccn1)N1c2nc(-c3cccc(Cl)c3)ccc2N2CC[C@H]1C2 [Example 101],A (A (EC1.5<1 μM))
18,Cc1nc(NC(=O)N2c3nc(-c4cccc(Cl)c4)ccc3N3CC[C@H]2C3)sc1C [Example 102],A (A (EC1.5<1 μM))
19,COc1cc(NC(=O)N2c3nc(-c4cccc(Cl)c4)ccc3N3CC[C@H]2C3)nc(OC)n1 [Example 103],B (B (EC1.5 1-25 μM))
20,COc1cc(NC(=O)N2c3nc(-c4cccc(Cl)c4)ccc3N3CC[C@H]2C3)ncn1 [Example 104],B (B (EC1.5 1-25 μM))
21,Cc1cc(C)nc(NC(=O)N2c3nc(-c4cccc(Cl)c4)ccc3N3CC[C@H]2C3)c1 [Example 105],B (B (EC1.5 1-25 μM))
22,Cc1cccnc1NC(=O)N1c2nc(-c3cccc(Cl)c3)ccc2N2CC[C@H]1C2 [Example 106],C (C (EC1.5>25 μM))

# Same assay, conditions: Trp peptide substrate; percent maximum fold activation of SIRT1; read-out: Tryp % Fold Act
row,SMILES,Emax [%]
1,O=C(Nc1ccncc1)N1c2nc(-c3cccc(C(F)(F)F)c3)ccc2N2CC(O)C1C2 (centres unmarked) [Compound 114],> 150
2,O=C(Nc1cc(F)ccn1)N1c2nc(-c3cccc(OC(F)(F)F)c3)ccc2N2CC[C@H]1C2 [Compound 174],> 150
